Test results from patent publication US4576962A, “Prostaglandin analogues” (priority 1984, dated 1986).

Assays:
stomach mucosa = experiment: cytoprotective activity in rats (absolute ethanol induced stomach mucosa lesions); assay type: in vivo, Sprague-Dawley rats; conditions: for Cytoprotection % / ED50: oral, rat; for ED50: read-out: ED50 Cytoprotection
Method: A number of the 13,14-didehydro-15-oxo-prostaglandin analogues have been tested for cytoprotective activity in rats. In this test, Sprague-Dawley rats were fasted for 24 hours prior to the pretreatment. […] The control animals were given 2.5 ml of the vehicle, without prostaglandin analogue. A half hour later after the pretreatment, absolute ethanol was administered orally to the animals, in a dose of 10 mL per kg body weight. One hour later the animals were sacrificed, their stomachs dissected out, opened along the greater curvature and the mucosa examined for lesions. The average lesion length is expressed as percentage of the average lesion length found in the stomach mucosa of control animals.
Importantly, this test measures the active cytoprotective properties of the prostaglandin analogues, independent of the gastric secretion inhibition that these compounds may or may not show. The test is discussed more fully by Robert et al., Gastroenterology 77 (1979) 433, incorporated herein by reference.

gastric ulceration [1] = experiment: gastric ulceration in arthritis patients receiving aspirin, tablets four times daily; assay type: in vivo; conditions: tablets orally four times daily; patients with arthritis on 1000 mg aspirin daily
[2] = enteropooling assay (diarrheogenic effect, Robert); assay type: in vivo; conditions: in vivo; for selectivity ratio: enteropooling dose relative to ED50 cytoprotection, defined in drawing 10, read-out: TI (therapeutic index)
Description: (§1) One of the most important side-effects of prostaglandins and prostaglandin analogues is their diarrheogenic effect. An assay was developed by Robert to test the diarrheogenic properties of prostaglandins and prostaglandin analogues. The test quantitatively determines the amount of "enteropooling", i.e. the accumulation of fluid into the small intestine.

small intestine = experiment: enteropooling assay (diarrheogenic effect, Robert); assay type: in vivo
Description: as §1

pregnant quinea pigs = experiment: abortificative effect in pregnant guinea pigs; assay type: in vivo; conditions: 25 mg/kg oral, days 43 and 44 of gestation, 6 animals
Method: Another important side effect of natural prostaglandins and prostaglandin analogues is their abortificative effect. Compound 1 was tested for this effect as follows.

rat fundic strip = experiment: smooth muscle contraction, rat fundic strip assay
Method: The smooth muscle contraction potency of compound 1 was tested in the rat fundic strip assay, described by W. L. M. Perry in "Pharmacological Experiments on Isolated Preparations," 2nd ed. (1970), pp. 88-89, Churchill L. Livingstone, publisher.

gastric ulceration [3] = experiment: gastric ulceration in patients, capsules administered twice daily; assay type: in vivo; conditions: patient ca. 70 kg
PGDH = conditions: Gandolfi et al.; cited from earlier work
[4] = background art; cited from earlier work
[5] = rat model; compared to natural prostaglandin PGE2; cited from earlier work
[6] = metabolism / intragastric dehydrogenation at C15; cited from earlier work
[7] = dose 0.5 mg/kg, negative = lesions worse than control

Compound: CCCCCC(=O)/C=C/[C@H]1CCC(=O)[C@@H]1CCCCCCC(=O)OC (relative stereo) [PGE1 trans oxo (a) (d)]
- Cytoprotection % (stomach mucosa; [7]): -22%
- Cytoprotection % (stomach mucosa; dose 3 mg/kg): 52%

Compound: CCCCCC(=O)C#C[C@@H]1[C@@H](C/C=C\CCCC(=O)O)[C@@H](O)C[C@H]1O [13,14-didehydro-15-oxo-PGF2α]
- reduction of incidence of gastric ulceration (gastric ulceration [1]): effectively reduces the incidence of gastric ulceration

Compound: CCCCCC(=O)C#C[C@@H]1[C@@H](C/C=C\CCCC(=O)OC)[C@@H](O)C[C@H]1O [PGF2α triple oxo (a), 13,14-didehydro-15-keto PGF2α methyl ester]
- cytoprotective potency (stomach mucosa; compared with PGF2α itself (tests nos. 7-10)): much more potent cytoprotective agent
- Cytoprotection % (stomach mucosa; dose 0.001 mg/kg): 6%
- Cytoprotection % (stomach mucosa; dose 0.01 mg/kg): 23%
- Cytoprotection % (stomach mucosa; dose 0.1 mg/kg): 50%
- Cytoprotection % (stomach mucosa; [7]): 98%

Compound: CCCCCC(=O)C#C[C@H]1CCC(=O)[C@@H]1CCCCCCC(=O)O (relative stereo) [Compound 1, 11-Deoxy-13,14-didehydro-15-oxo PGE1]
- ED50 (stomach mucosa): 0.1 mg/kg
- TD50 [2]: 25 mg/kg
- selectivity ratio [2]: 250
- diarrheogenic effect (small intestine; compared to PGE2 and PGE2 analogues): very low diarrheogenic effect
- therapeutic index (small intestine; compared with the other compounds of table 2): significantly higher
- abortion induced (pregnant quinea pigs): in none of the animals did the dose of compound 1 induce abortion
- EC50 for smooth muscle contraction relative to PGE2 (rat fundic strip; compound 1 EC50 higher than that of PGE2): three orders of magnitude higher
- EC50 for smooth muscle contraction relative to PGF2α and PGE1 (rat fundic strip; compound 1 EC50 higher than that of PGF2α and PGE1): two orders of magnitude higher
- EC50 (rat fundic strip; rat fundic strip): 5 µM

Compound: CCCCC[C@H](O)/C=C/[C@@H]1[C@@H](C/C=C\CCCC(=O)OC)[C@@H](O)C[C@H]1O [PGF2α trans OH (a)]
- Cytoprotection % (stomach mucosa; dose 0.001 mg/kg): -19%
- Cytoprotection % (stomach mucosa; dose 0.01 mg/kg): 1.7%
- Cytoprotection % (stomach mucosa; dose 0.1 mg/kg): -17%
- Cytoprotection % (stomach mucosa; [7]): 82%

Compound: CCCCCC(=O)C#C[C@H]1[C@H](O)CC(=O)[C@@H]1CCCCCCC(=O)O [13,14-didehydro-15-oxo PGE1]
- reduction of gastric ulceration (gastric ulceration [3]): substantially reduce gastric ulceration

Compound: CCCC[C@@H](C)[C@H](O)C#C[C@H]1[C@H](O)CC(=O)[C@@H]1C/C=C\CCCC(=O)O [16(R),16-methyl-13-dehydro PGE2]
- substrate for the enzyme PGDH (PGDH): not substrates for the enzyme PGDH
- gastric anti-ulcer properties / activity [4]: potent gastric anti-ulcer properties

Compound: CCCCCC(=O)C#C[C@H]1CCC(=O)[C@@H]1CCCCCCC(=O)OC (relative stereo) [PGE1 triple oxo (a) (d)]
- Cytoprotection % (stomach mucosa; [7]): 39%
- Cytoprotection % (stomach mucosa; dose 1 mg/kg): 81%
- Cytoprotection % (stomach mucosa; dose 3 mg/kg): 78%
- Cytoprotection % (stomach mucosa; dose 5 mg/kg): 96%

Compound: CCCC[C@H](C)[C@H](O)C#C[C@H]1[C@H](O)CC(=O)[C@@H]1C/C=C\CCCC(=O)O [16(S),16-methyl-13-dehydro PGE2]
- substrate for the enzyme PGDH (PGDH): not substrates for the enzyme PGDH
- gastric anti-ulcer properties / activity [4]: potent gastric anti-ulcer properties

Compound: CCCCC(C)(C)[C@H](O)/C=C/[C@H]1[C@H](O)CC(=O)[C@@H]1C/C=C\CCCC(=O)O [16,16-dimethyl PGE2]
- TD50 [2]: 0.0005 mg/kg
- selectivity ratio [2]: 10
- ED50 for cytoprotection [5]: lower value of the ED50

Compound: CCCCC[C@](C)(O)/C=C/[C@H]1[C@H](O)CC(=O)[C@@H]1C/C=C\CCCC(=O)O [15(S),15-methyl PGE2]
- stability [6]: more stable than PGE2 itself

Compound: CCCCC[C@@](C)(O)/C=C/[C@H]1[C@H](O)CC(=O)[C@@H]1C/C=C\CCCC(=O)O [15(R)-15-methyl PGE2]
- TD50 [2]: 0.005 mg/kg
- selectivity ratio [2]: 25 to 100
- ED50 for cytoprotection [5]: lower value of the ED50
- stability [6]: better stability

Compound: CCCCC[C@H](O)/C=C/[C@H]1[C@H](O)CC(=O)[C@@H]1C/C=C\CCCC(=O)O [PGE2]
- ED50 (stomach mucosa): 0.025 mg/kg
- selectivity ratio [2]: 30
- Enteropooling Dose (ED50 for enteropooling) (small intestine; in vivo): 0.750 mg/kg
- stability [6]: readily metabolized
